In patent US20140179664A1, “Heterocyclyl Pyrimidine Analogues As JAK Inhibitors” (Cellzome Limited, priority 2011, published 2014):

Target: T1, JAK1 (Homo sapiens, UniProt P23458)
T1 construct: endogenous in cells; host or cells: Molt4 (ATCC CRL-1582) and Ramos (ATCC CRL-1596), mixed lysate 1:2
Assay: Kinobeads assay, JAK1
Type: binding
Settings: mixed Molt4/Ramos lysate, read-out: Inhibition values (IC50) JAK1
Summary of the method: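 Mixed Molt4/Ramos cell lysate (1:2) was incubated 3 hours in the cold with kinobeads and a 9-step 1:3 compound dilution series. The no-compound control carried 2% DMSO. Bead-bound JAK1 was eluted, detected by antibody dot blot with infrared fluorescence, and IC50 derived from dose-response curves.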

T1 sequence (P23458 whole entry): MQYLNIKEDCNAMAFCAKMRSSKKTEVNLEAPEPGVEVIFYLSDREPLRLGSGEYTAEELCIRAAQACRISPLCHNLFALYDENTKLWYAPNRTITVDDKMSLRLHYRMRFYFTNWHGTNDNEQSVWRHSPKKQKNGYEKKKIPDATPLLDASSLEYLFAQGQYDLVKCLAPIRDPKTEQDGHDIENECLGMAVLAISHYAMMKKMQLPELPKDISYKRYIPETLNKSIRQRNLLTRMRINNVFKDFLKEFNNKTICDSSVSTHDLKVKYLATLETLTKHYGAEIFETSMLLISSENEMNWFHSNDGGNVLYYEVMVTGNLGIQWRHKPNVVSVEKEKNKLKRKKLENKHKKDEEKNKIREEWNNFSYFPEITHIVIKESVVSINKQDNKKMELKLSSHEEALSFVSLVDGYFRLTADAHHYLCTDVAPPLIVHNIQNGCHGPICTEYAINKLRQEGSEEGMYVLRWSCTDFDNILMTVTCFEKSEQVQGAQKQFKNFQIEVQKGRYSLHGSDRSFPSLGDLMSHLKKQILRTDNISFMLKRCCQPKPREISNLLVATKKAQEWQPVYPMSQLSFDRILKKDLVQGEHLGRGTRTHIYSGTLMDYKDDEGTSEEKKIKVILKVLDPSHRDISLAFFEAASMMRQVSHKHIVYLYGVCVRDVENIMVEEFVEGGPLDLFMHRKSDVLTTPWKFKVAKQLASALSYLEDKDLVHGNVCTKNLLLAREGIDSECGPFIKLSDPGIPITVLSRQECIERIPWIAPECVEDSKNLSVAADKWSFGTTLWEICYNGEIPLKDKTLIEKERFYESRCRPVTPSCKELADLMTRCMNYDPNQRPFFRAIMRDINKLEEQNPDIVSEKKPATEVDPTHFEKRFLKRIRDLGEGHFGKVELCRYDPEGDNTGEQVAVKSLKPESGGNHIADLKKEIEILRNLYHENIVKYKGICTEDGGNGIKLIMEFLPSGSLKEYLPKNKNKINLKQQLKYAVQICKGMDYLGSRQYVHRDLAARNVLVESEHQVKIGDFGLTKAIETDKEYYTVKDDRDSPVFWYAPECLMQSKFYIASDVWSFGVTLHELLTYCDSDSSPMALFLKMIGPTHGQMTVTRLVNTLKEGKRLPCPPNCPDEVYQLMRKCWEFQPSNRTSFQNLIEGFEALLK

IC50 [nM] | Structure (SMILES)
100 to 1000 | OCCn1cc(Nc2ncc(Cl)c(N[C@H](CO)c3cccnc3)n2)cn1 [Compound 92]
1000 to 10000 | OCCn1cc(Nc2ncc(Cl)c(NC(CO)c3cccc(Br)c3)n2)cn1 (stereo not shown) [Compound 93]
100 to 1000 | CN(C)CCCNC(=O)Cn1cc(Nc2ncc(Cl)c(N[C@H](CO)c3ccccc3)n2)cn1 [Compound 90]
100 to 1000 | Cn1cc(Nc2ncc(Cl)c(N[C@H](CO)c3cccnc3)n2)cn1 [Compound 91]

The remaining lines, values behind:

Structure (SMILES) | IC50 [nM]
NC(=O)Cn1cc(Nc2ncc(Cl)c(N[C@H](CO)c3cccc(F)c3)n2)cn1 [Compound 87] | < 100
CN(C)CCNC(=O)Cn1cc(Nc2ncc(Cl)c(N[C@H](CO)c3ccccc3)n2)cn1 [Compound 89] | 100 to 1000
OC[C@@H](Nc1nc(Nc2cn[nH]c2)ncc1Cl)c1cccc(F)c1 [Compound 88] | 100 to 1000
Cn1cc(Nc2ncc(F)c(N[C@H](CO)c3ccccc3)n2)cn1 [Compound 3] | 1000 to 10000
Cn1cc(Nc2ncc(Cl)c(N[C@H](CO)c3cccc(F)c3)n2)cn1 [Compound 85] | 100 to 1000
OCCn1cc(Nc2ncc(Cl)c(N[C@H](CO)c3cccc(F)c3)n2)cn1 [Compound 86] | 100 to 1000
